These results are taken from patent publication US20160287536A1, “Composition” (THE UNIVERSITY OF NOTTINGHAM, priority 2013, published 2016).

The subject of experiment [1] is vascular preparations. The following applies: 100 μM; cited from earlier work.
Experiment [2] has as its system nitric oxide synthase. The following applies: 100 μM; cited from earlier work.
The subject of experiment [3] is sheep isolated rectal vein. In words: Wire myography, sheep isolated rectal vein (SRV). Type of experiment: cell-based. The following applies: SRV. The method, then:
(§1) Sheep mesenteric tissue, from the distal sigmoid colon to the anus, was obtained from a local abattoir. The sheep tissue was delivered in a dry bag and stored at 4° C. until dissected. The bundle of sheep rectal vessels was dissected from its mesentery within four hours of arrival from the abattoir. The vascular bundle was then kept in the pre-oxygenated Krebs-Henseleit buffer solution at 4° C. until used (on the same day as a preferential method or on the following day after storage overnight). No experiments were conducted on tissue stored for more than 24 hours after dissection. The Krebs solution consisted of 118.4 mM NaCl, 4.7 mM KCl, 1.2 mM MgSO4, 1.2 mM KH2PO4, 1.25 mM CaCl2, 24.9 mM NaHCO3, and 11.1 mM glucose.
(§2) Before setting a wire myography experiment, the remaining loose connective tissue was meticulously removed from the rectal vessels. The internal diameter of sheep isolated rectal artery and vein was 450-650 μm and 500-1000 μm, respectively. Each 5-mm ring segment of the ‘clean’ vessels was then suspended between two 200-μm wire supports in an organ bath containing 20 ml Krebs-Henseleit buffer solution. The upper supporting wire was attached to an isometric force transducer, while the lower wire was fixed steadily to a clamped glass rod. The bath solution was maintained at 37° C., and continuously gassed with 95% O2 and 5% CO2. Isometric tension was continuously recorded using a PowerLab 4/25 via QUAD Bridge amplifier (ADInstruments, Inc, Australia).
(§3) After a 10-minute equilibration period, an initial tension of 8 gram weight (g wt) was gradually applied for an arterial segment and left to relax for 30 minutes. The final tension of SRA varied between 1.0 g wt and 2.8 g wt. For a venous segment, an initial tension of 1 g wt was applied and, 10 minutes later, the resting tension was finally re-adjusted to reach a tension of 0.5 g wt. Then the vein was left to relax for further 20 minutes. The final tension of SRV ranged from 0.08 to 0.25 g wt. Once the vascular segments were fully settled, the tissues were tested for contractile activity with 60 mM KCl on three occasions. The vascular contraction was allowed to reach maximum, which generally took about 1-4 minutes. Each KCl challenge was followed by two washouts of 37° C. Krebs solution and the tissues were allowed to rest for 20 minutes between the challenges. The maximum contraction (tension) produced by the third administration of 60 mM KCl was used as a reference contraction to which subsequent responses were compared. After the final (3rd) KCl challenge, the tissues were washed and left for 60 minutes before α-adrenoceptor agonist was administrated. To construct an agonist concentration-response curves (CRC), 0.3-0.4 log 10 increments of agonist solution was added e.g. at the agonist concentration of 100 nM, 200 nM, 500 nM, 1 μM, 2 μM, 5 μM, and so on. Each response was allowed to reach equilibrium or plateau before the next dose of agonist was added. The maximal response to the agonist was considered when no further increase in response occurred upon the addition of two or more consecutive doses of agonist.
(§4) In the case of the noradrenaline study, 10 μM cocaine was added into the organ bath 40 minutes prior to the administration of noradrenaline for inhibiting the uptake of noradrenaline by neural tissue within the vascular wall (re-uptake 1) (Westfall & Westfall, 2006 In Goodman & Gilman's the Pharmacological Basis of Therapeutics. eds Brunton, L. L., Lazo, J. S. & Paker, K. L. pp. 137-181. New York: McGraw Hill). Regarding KCl-induced vasoconstriction, the CRC was generated by the contractile response to 6 mM increments of KCl solution, starting from 0 mM to 60 mM.
(§5) Consecutive CRCs were generated to each agonist, separated by 60 minutes, and if there was no difference in the maximum response (Emax) and pEC50 (defined as the negative logarithm of the concentration required to produce 50% of the maximum response) then a paired CRC protocol was used throughout. […]

Experiment [4] concerns human isolated mesenteric artery. Kind of experiment: Wire myography, human isolated mesenteric (colonic/rectal) artery (HMA). In kind it is cell-based. From the text:
(§6) After obtaining approval from the local research ethics committee (Reference number: 05/Q2403/171) and having written consent from the patient, human mesenteric (colonic or rectal) vessels were collected from patients who underwent colectomy and/or proctectomy at the Division of Gastrointestinal Surgery, Queen's Medical Centre, University of Nottingham, UK, between August 2009 and March 2010. Patients with a history of previous abdominal/pelvic radiotherapy, and patients with endocrine tumours or concomitant intraabdominal infection were excluded from this study. In an operating room, the mesentery containing the required segment of blood vessels was dissected from the whole surgical specimen immediately after it was removed from a patient. The tissue was then kept in a 100-ml pot containing pre-oxygenated Krebs-Henseleit buffer solution maintained at 4° C. until used. No experiments were conducted on tissue stored for more than 12 hours after dissection. The Krebs solution consisted of 118.4 mM NaCl, 4.7 mM KCl, 1.2 mM MgSO4, 1.2 mM KH2PO4, 1.25 mM CaCl2, 24.9 mM NaHCO3, and 11.1 mM glucose.
Before setting a wire myography experiment, human mesenteric (colonic/rectal) vessels were meticulously dissected from the surrounding mesenteric fatty tissue. The ‘clean’ vessel was then divided into 5-mm ring segments. […]

For experiment [5], the system named is sheep isolated rectal artery. In words: Wire myography, sheep isolated rectal artery (SRA). In kind it is cell-based. The following applies: for Kb: Ovis aries. The method, then:
as §1, §2, §3, §4, §5

For experiment [6], the system named is human isolated mesenteric vein. Kind of experiment: Wire myography, human isolated mesenteric (colonic/rectal) vein (HMV). In kind it is cell-based.
Text: as §6
Before setting a wire myography experiment, human mesenteric (colonic/rectal) vessels were meticulously dissected from the surrounding mesenteric fatty tissue. The ‘clean’ vessel was then divided into 5-mm ring segments. Generally, the internal diameter of vessels ranged between 400-1000 μm for human mesenteric artery (HMA) and 500-1200 μm for human mesenteric vein (HMV). Each 5-mm ring segment was suspended between two 200-μm wire supports in an organ bath containing 20 ml Krebs-Henseleit buffer solution. The contractile study of human mesenteric vessels was then set in the similar manner of the previous study on sheep isolated rectal vessels.
After a 20-minute equilibration period, an initial resting tension of 8 and 1 gram weight (g wt) was gradually applied to arterial and venous ring segments, respectively, and left to relax for 30 minutes. The final resting tension varied between 1.8 g wt and 3.2 g wt for HMA, and between 0.07 g wt and 0.35 g wt for HMV. Once the vascular segments were fully settled, they were tested for contractile activity with 60 mM KCl three occasions, and an agonist concentration-response curves (CRC) was then reconstructed after the vessels were left to equilibrate for 60 minutes as previously described for sheep rectal vessels. […] In the case of noradrenaline study, 10 μM cocaine was added into the organ bath 40 minutes prior to the administration of noradrenaline for inhibiting the uptake of noradrenaline by neural tissue within the vascular wall (re-uptake 1) (Westfall & Westfall, 2006 In Goodman & Gilman's the Pharmacological Basis of Therapeutics. eds Brunton, L. L., Lazo, J. S. & Paker, K. L. pp. 137-181. New York: McGraw Hill).
Although it appeared that the CRCs of several vasoconstrictors were reproducible (no significant change in maximum response and agonist potency) in human mesenteric vessels, a single CRC, paired segment approach was adopted throughout the study of human blood vessels. This was due to a desire to limit the time of tissue storage and the ease of tissue preparation. The single CRC, paired segment approach involves the generation of only one agonist CRC per tissue. The maximum response (Emax) and pEC50 (defined as the negative logarithm of the concentration required to produce 50% of the maximum response) of each vascular segment were compared to those of other vascular segments (adjacent segments from the same patient, or other segments from different patients).
If the vessel had spontaneous and periodic contraction after the administration of S(−)-BayK8644—which occurred in 70% of HMA and 80% of HMV, the effect of agonist would be considered when there was an increase in the frequency of contraction as well as a rise in the baseline of vascular tone.
The selective α1-adrenoceptor antagonist prazosin and selective α2-adrenoceptor antagonist RX811059 were used in this study. […]

Experiment [7] has as its system porcine isolated tail artery. The method, then: U46619 was added to produce a contraction equivalent to 60% of KCl followed by sufficient to forskolin to causes a relaxation back to baseline. Cumulative concentration response curves to brimondine and phenylephrine were elicited in the presence and absence of the combination of U4/For. Responses have been expressed a percent of the contraction to 60 mM KCl and represent the mean of 5-6 separate observations.

“And” between values parts separate entries of the source, which are not always exact repeats. Equal values may be shown once.

Take `CN(C)C(N)=NCCC[C@H](N)C(=O)O` [ADMA, Asymmetric dimethyl arginine]: in experiment [1], the “effect on vasoconstrictor responses to phenylephrine” value is reported as “enhance the vasoconstrictor responses to phenylephrine”. For the same molecule, the “inhibition of nitric oxide synthase” value in experiment [2] is on record as “inhibit nitric oxide synthase”.
On to `COC(=O)C1=C(C)NC(C)=C([N+](=O)[O-])[C@H]1c1ccccc1C(F)(F)F` [S(−)-BayK8644, (4S)-1,4-dihydro-2,6-dimethyl-5-nitro-4-[2-(trifluoromethyl)-phenyl]-3-pyridine carboxylic acid methyl ester], for which, in experiment [3] (1 μM), the “effect on potency of noradrenaline” value is recorded as “significantly increased the potency”. Besides, the “vessels with spontaneous phasic contraction” value in experiment [4] (1 μM) was 70% and 71%. Further, the “effect on 5-HT-induced contraction” value in experiment [5] (SRA and SRV, 1 μM) is on record as “no effect”. In experiment [5] (SRA, 1 μM), the “effect on potency of KCl” value was “significantly increased the potency” and the “observations with spontaneous contraction” value turned out to be 6%. Moreover, in experiment [6] (1 μM), the “vessels with spontaneous phasic contraction” value is 80% and 83%.
For the molecule `COc1cc2nc(N3CCN(C(=O)c4ccco4)CC3)nc(N)c2cc1OC` [prazosin], the Kb is 0.17 nM in experiment [3] (Ovis aries, 10 nM prazosin / 30 nM RX811059 against noradrenaline); 0.316 nM in experiment [4] (Homo sapiens, noradrenaline-induced contractions); 0.158 to 0.398 nM in experiment [5] (SRA and SRV, contraction to noradrenaline (summary)); 0.398 nM in experiment [5] (SRA, 2 nM prazosin against noradrenaline-induced contraction). Besides, in experiment [3] (prazosin 10 nM, RX811059 30 nM), the “rightward shift of the CRC for noradrenaline” value came out at 70 fold. Also, the “effect on the noradrenaline CRC” value in experiment [5] (SRA, prazosin 0.4-10 nM, RX811059 30 nM) is given as “concentration-dependent, parallel rightward shift”. In experiment [6] (10 nM prazosin, 30 nM RX811059), the “effect on potency of noradrenaline” value is listed as “significantly reduced the potency of noradrenaline”.
Consider `Brc1c(NC2=NCCN2)ccc2nccnc12` [UK14304, brimonidine], for which the “contractile responses in the presence of the combination of U46619 and forskolin” value in experiment [7] is recorded as “enhanced”. Besides, in experiment [3], the “contractile response” value was “concentration-dependent contractions”. For the same molecule, the “veins with concentration-dependent contraction” value in experiment [3] (the rest <10% of the response to 60 mM KCl) is given as 6 out of 12.
